Measurements taken from patent US9730445B2, “Herbicidal compositions comprising 4-amino-3-chloro-5-fluoro-6-(4-chloro-2-fluoro-3-methoxyphenyl) pyridine-2-carboxylic acid or a derivative thereof and fungicides” (DOW AGROSCIENCES LLC, priority 2013, dated 2017).
Where “and” joins values, the source holds several entries; their conditions need not be identical. Equal entries are not always repeated.

Key:
LEFCH = test: Postemergence foliar-applied weed control, direct-seeded rice (greenhouse); assay type: in vivo, Leptochloa chinensis (L.) Nees (Chinese sprangletop)
ECHCO = test: as above; assay type: in vivo, Echinochloa colonum (L.) LINK (junglerice)
From the text: Seeds or nutlets of the desired test plant species were planted in a soil matrix prepared by mixing aloam or sandy loam soil (e.g., 28.6 percent silt, 18.8 percent clay, and 52.6 percent sand, with a pH of about 5.8 and an organic matter content of about 1.8 percent) and calcareous grit in an 80 to 20 ratio. The soil matrix was contained in plastic pots with a volume of 1 quart and a surface area of 83.6 square centimeters (cm^2). When required to ensure good germination and healthy plants, a fungicide treatment and/or other chemical or physical treatment was applied. The plants were grown for 8-22 days in a greenhouse with an approximate 14 hour (h) photoperiod which was maintained at about 29° C. during the day and 26° C. during the night. Nutrients (Peters Excel® 15-5-15 5-Ca 2-Mg and iron chelate) were applied in the irrigation solution as needed and water was added on a regular basis. Supplemental lighting was provided with overhead metal halide 1000-Watt lamps as necessary. The plants were employed for testing when they reached the first through fourth true leaf stage.
Treatments consisted of the acid or esters of 4-amino-3-chloro-5-fluoro-6-(4-chloro-2-fluoro-3-methoxy-phenyl)pyridine-2-carboxylic acid (Compound A), each formulated as an SC (suspension concentrate), and various fungicidal components alone and in combination. Forms of compound A were applied on an acid equivalent basis.
Treatment requirements were calculated based upon the rates being tested, the concentration of active ingredient or acid equivalent in the formulation and a 12 milliliter (mL) application volume at a rate of 187 liters per hectare (L/ha).
For treatments comprised of formulated compounds, measured amounts of compounds were placed individually in 25 mL glass vials and diluted in a volume of 1.25% volume per volume (v/v) Agri-Dex® crop oil concentrate to obtain 12× stock solutions. […] Application solutions were prepared by adding an appropriate amount of each stock solution (e.g., 1 mL) and diluted to the appropriate final concentrations with the addition of […] of an aqueous mixture of 1.25% (v/v) crop oil concentrate so that the final spray solutions contained 1.25+/−0.05% (v/v) crop oil concentrate.
For treatments comprised of technical compounds, weighed amounts can be placed individually in 25 mL glass vials and dissolved in a volume of 97:3 volume per volume (v/v) acetone/dimethyl sulfoxide (DMSO) to obtain 12× stock solutions. […] When technical materials are used, the concentrated stock solutions can be added to the spray solutions so that the final acetone and DMSO concentrations of the application solutions are 16.2% and 0.5%, respectively.
As required, additional water and/or 97:3 v/v acetone/DMSO was added to individual application solutions so that the final acetone and DMSO concentrations of the application solutions being compared were 8.1% and 0.25%, respectively
All stock solutions and applications solutions were visually inspected for compound compatibility prior to application. Spray solutions were applied to the plant material with an overhead Mandel track sprayer equipped with 8002E nozzles calibrated to deliver 187 L/ha over an application area of 0.503 square meters (m^2) at a spray height of 18 to 20 inches (46 to 50 cm) above average plant canopy height. Control plants were sprayed in the same manner with the solvent blank.
The treated plants and control plants were placed in a greenhouse as described above and watered by sub-irrigation to prevent wash-off of the test compounds. After approximately 3 weeks, the condition of the test plants as compared with that of the untreated plants was determined visually and scored on a scale of 0 to 100 percent where 0 corresponds to no injury or growth inhibition and 100 corresponds to complete kill. […]

[1] = r38-39 ester 8/16 g ae/ha alone, r40 isotianil 380 g ai/ha alone, r41-42 ester 8/16 + 380

COc1c(Cl)ccc(-c2nc(C(=O)OCc3ccccc3)c(Cl)c(N)c2F)c1F [Compound A Benzyl Ester]
Visual Weed Control (%) - 19 DAA LEFCH Obs (LEFCH; 19 DAA, r9-11 ester 8/16/32 g ae/ha alone, r12-13 flutolanil 280/560 g ai/ha alone, r14-19 ester 8/16/32 at each of 280, 560): 45% and 50%
Visual Weed Control (%)—21 DAA LEFCH Obs (LEFCH; r9-11 ester 8/16/32 g ae/ha alone, r12-14 kasugamycin 17.5/35/70 g ai/ha alone, r15-23 ester 8/16/32 at each of 17.5, 35, 70): 40% and 65%
Visual Weed Control (%) - 21 DAA LEFCH Obs (LEFCH; r10-11 ester 16/32 g ae/ha alone, r12 mancozeb 840 g ai/ha alone, r13-14 ester 16/32 + 840): 15% and 25%
Visual Weed Control (%) - 21 DAA LEFCH Obs (LEFCH; r10-12 ester 8/16/32 g ae/ha alone, r13-14 isoprothiolane 266/533 g ai/ha alone, r15-20 ester 8/16/32 at each of 266, 533): 50% and 60% and 70%
Visual Weed Control (%)—21 DAA LEFCH Obs (LEFCH; [1]): 25% and 40%
Visual Weed Control (%) - 21 DAA LEFCH Obs (LEFCH; r42-43 ester 16/32 g ae/ha alone, r44-46 difenoconazole 50/100/200 g ai/ha alone, r47-52 ester 16/32 at each of 50, 100, 200): 25% and 43%
Visual Weed Control (%) - 19 DAA ECHCO Obs (ECHCO; r9-11 ester 8/16/32 g ae/ha alone, r12-13 carbendazim 125/250 g ai/ha alone, r14-19 ester 8/16/32 at each of 125, 250): 90% and 95% and 65%
Visual Weed Control (%) - 19 DAA ECHCO Obs (ECHCO; r9-11 ester 8/16/32 g ae/ha alone, r12-13 flutolanil 280/560 g ai/ha alone, r14-19 ester 8/16/32 at each of 280, 560): 90% and 95% and 65%
Visual Weed Control (%)—21 DAA ECHCO Obs (ECHCO; r9-11 ester 8/16/32 g ae/ha alone, r12-14 hexaconazole 25/50/100 g ai/ha alone, r15-23 ester 8/16/32 at each of 25, 50, 100): 65% and 85% and 50%
Visual Weed Control (%)—21 DAA ECHCO Obs (ECHCO; [1]): 50% and 65%
